ChEMBL document CHEMBL1201862, “PubChem BioAssay data set” (2004)
Blank lines part the entries; values can stand above or below the molecule they belong to. Active and inactive are the calls of the source.

Columns and labels:
[1] = molecular target: Glyceraldehyde-3-phosphate dehydrogenase (Homo sapiens, UniProt P04406)
[2] = molecular target: T1, Alkaline phosphatase, tissue-nonspecific isozyme (Homo sapiens, UniProt P05186); assay: potency against alkaline phosphatase TNAP – biochemical, luminescent, dose response, SAR follow-up (AID 1056)
T1 sequence (P05186 whole entry): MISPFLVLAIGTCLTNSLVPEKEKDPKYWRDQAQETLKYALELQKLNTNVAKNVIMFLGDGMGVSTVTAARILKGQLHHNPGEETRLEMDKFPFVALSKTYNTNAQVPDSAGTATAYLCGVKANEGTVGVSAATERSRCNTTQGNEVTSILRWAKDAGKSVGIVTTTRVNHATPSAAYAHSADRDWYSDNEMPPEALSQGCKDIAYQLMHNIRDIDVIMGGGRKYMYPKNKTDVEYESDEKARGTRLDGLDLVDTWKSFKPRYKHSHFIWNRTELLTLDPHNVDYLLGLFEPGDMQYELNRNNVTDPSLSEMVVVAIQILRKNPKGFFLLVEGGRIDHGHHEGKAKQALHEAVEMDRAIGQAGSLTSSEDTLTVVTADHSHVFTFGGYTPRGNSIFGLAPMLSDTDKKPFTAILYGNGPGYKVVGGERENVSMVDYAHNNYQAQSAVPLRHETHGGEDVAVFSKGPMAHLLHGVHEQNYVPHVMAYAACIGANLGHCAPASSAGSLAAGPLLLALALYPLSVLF

[3] = reduction of Shn3 3'UTR-driven luciferase in osteoblasts – cell-based, Clone20 osteoblasts, firefly luciferase, cherry-picked, dose response (AID 624132); assay type: functional;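 note: firefly luciferase luminescence from reporter carrying the Shn3 3'UTR in osteoblasts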
[4] = molecular target: Heat shock protein HSP 90-alpha (Homo sapiens, UniProt P07900); assay type: functional, organism-based
[5] = loss of viability in HepG2 cells – cell-based, CellTiter-Glo, cherry-picked, cytotoxicity control for Shn3 inhibitor project, dose response (AID 624134); assay type: functional
[6] = molecular target: Photoreceptor-specific nuclear receptor (Homo sapiens, UniProt Q9Y5X4); assay type: functional, cell-based;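 note: CHO-S cells with Gal4-NCOR and VP16-NR2E3 two-hybrid luciferase reporter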
[7] = non-specific 3'UTR reporter inhibition in Clone20-Shn3RL – cell-based, Renilla luciferase, cherry-picked, counter-screen for Shn3 inhibitor project, dose response (AID 624133); assay type: functional
[8] = molecular target: T2, Coagulation factor XII (Homo sapiens, UniProt P00748); assay type: functional;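 note: activated factor XIIa alpha cleaving a fluorogenic AMC peptide substrate; inhibitor potency from loss of enzyme activity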
T2 sequence (P00748 whole entry): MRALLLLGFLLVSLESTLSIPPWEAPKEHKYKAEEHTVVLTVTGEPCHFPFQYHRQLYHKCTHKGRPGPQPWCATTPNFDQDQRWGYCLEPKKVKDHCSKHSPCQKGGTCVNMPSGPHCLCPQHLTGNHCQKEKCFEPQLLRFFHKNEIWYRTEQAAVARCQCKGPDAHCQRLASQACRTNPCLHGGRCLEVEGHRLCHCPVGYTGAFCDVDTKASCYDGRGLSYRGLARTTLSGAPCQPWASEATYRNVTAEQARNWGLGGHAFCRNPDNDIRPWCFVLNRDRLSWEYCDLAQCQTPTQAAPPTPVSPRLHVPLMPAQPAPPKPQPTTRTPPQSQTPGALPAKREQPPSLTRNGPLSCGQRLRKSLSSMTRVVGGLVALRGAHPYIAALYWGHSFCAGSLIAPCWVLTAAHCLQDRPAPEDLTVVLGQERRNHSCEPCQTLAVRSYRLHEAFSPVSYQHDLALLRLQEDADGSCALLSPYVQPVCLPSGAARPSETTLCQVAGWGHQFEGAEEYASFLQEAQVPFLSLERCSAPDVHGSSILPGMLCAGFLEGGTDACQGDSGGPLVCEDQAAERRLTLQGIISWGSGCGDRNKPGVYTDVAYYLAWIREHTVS

[9] = cAMP pathway inhibition in counterscreen cell line – TR-FRET cAMP detection, counter-screen for MC4R biased antagonist project, dose response (AID 602305); assay type: functional, cell-based;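 note: U2OS cells stimulated with forskolin near its EC80 as the cAMP inducer; potency is for inhibition of forskolin-stimulated cAMP signaling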
[10] = molecular target: Melanocortin receptor 4 (Homo sapiens, UniProt P32245); assay: inhibitors of MC4R cAMP signaling – cell-based, TR-FRET, biased antagonists, dose response (AID 602298); assay type: functional;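 note: antagonist potency against agonist-stimulated cAMP production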
[11] = molecular target: Nuclear receptor subfamily 5 group A member 2 (Homo sapiens, UniProt O00482); assay type: functional, cell-based;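 note: HEK293T cells transfected with LRH-1 and a StAR promoter luciferase reporter; potency for inhibitors that lower LRH-1 driven reporter light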
[12] = molecular target: Steroidogenic factor 1 (Homo sapiens, UniProt Q13285); assay: Counterscreen for inverse agonists of the liver receptor homolog-1 (LRH-1; NR5A2): Luminescence-based cell-based high throughput dose response assay to identify inverse agonists of the Steroidogenic Factor 1 Nuclear Receptor (SF1; NR5A1).; assay type: functional
[13] = nonselective StAR promoter luciferase inhibitors – cell-based, luminescence, luciferase reporter, counter-screen for LRH-1 inverse agonist project, dose response (AID 651969); assay type: functional
[14] = viability loss in HeLa cells – cytotoxicity control for MgcRacGAP inhibitor project, dose response (AID 624300); assay type: functional
[15] = molecular target: T3, Rac GTPase-activating protein 1 (Homo sapiens, UniProt Q9H0H5); assay: blockers of MgcRacGAP-driven Rac1 GTP hydrolysis – biochemical, ADP Hunter fluorescence, primary and confirmatory, confirmation (AID 624330); assay type: functional
T3 sequence (Q9H0H5 whole entry): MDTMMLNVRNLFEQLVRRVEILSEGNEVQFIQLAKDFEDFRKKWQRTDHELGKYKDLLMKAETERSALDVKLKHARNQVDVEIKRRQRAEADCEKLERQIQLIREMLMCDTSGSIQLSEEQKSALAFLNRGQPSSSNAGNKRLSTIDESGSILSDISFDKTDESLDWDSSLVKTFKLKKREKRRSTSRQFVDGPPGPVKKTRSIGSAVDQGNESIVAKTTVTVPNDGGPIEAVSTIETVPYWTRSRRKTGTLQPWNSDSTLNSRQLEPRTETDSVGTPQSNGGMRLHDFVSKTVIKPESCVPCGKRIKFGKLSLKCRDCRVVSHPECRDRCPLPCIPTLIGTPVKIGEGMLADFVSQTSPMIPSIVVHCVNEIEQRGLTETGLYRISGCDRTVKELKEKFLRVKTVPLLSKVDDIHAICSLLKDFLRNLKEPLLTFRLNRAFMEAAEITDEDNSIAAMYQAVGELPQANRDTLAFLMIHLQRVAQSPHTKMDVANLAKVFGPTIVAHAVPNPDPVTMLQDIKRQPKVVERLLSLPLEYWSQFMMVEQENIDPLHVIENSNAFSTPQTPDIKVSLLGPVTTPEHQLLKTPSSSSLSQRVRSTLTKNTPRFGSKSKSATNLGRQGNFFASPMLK

Chain of Nuclear receptor subfamily 5 group A member 2 (O00482 whole entry): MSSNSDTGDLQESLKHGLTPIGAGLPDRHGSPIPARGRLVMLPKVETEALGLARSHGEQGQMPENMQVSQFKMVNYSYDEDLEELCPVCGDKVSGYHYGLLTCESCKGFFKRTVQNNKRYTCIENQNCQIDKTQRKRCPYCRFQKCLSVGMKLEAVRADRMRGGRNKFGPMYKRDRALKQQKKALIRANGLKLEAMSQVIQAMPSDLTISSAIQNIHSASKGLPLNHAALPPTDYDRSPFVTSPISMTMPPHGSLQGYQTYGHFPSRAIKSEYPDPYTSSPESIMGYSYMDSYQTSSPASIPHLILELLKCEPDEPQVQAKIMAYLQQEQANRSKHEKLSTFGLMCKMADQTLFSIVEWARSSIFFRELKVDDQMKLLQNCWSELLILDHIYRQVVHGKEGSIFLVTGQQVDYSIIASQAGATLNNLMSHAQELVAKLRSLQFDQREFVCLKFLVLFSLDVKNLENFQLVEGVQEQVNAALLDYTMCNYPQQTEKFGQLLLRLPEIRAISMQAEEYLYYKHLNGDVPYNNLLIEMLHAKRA
Chain of Steroidogenic factor 1 (Q13285 whole entry): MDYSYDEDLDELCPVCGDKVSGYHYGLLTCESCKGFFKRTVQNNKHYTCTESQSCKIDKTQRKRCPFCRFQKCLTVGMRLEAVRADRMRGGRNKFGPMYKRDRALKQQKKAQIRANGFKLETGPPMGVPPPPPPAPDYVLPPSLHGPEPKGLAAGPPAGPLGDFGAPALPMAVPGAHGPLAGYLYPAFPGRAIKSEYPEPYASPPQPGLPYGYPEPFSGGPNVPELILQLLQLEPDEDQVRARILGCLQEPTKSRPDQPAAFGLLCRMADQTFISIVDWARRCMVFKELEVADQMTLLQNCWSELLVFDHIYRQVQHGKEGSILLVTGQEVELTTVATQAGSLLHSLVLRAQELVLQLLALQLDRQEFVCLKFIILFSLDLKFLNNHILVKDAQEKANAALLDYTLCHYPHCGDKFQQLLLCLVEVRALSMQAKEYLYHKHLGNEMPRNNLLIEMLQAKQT
Chain of Glyceraldehyde-3-phosphate dehydrogenase (P04406 whole entry): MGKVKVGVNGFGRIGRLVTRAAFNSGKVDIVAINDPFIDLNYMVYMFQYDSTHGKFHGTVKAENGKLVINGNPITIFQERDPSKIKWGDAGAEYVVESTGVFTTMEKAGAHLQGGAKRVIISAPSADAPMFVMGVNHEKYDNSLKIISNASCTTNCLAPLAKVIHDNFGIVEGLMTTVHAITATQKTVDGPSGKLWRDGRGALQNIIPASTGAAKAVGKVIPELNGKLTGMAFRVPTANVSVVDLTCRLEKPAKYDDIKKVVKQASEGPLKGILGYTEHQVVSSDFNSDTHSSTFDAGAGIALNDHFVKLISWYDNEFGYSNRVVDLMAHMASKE
Chain of Melanocortin receptor 4 (P32245 whole entry): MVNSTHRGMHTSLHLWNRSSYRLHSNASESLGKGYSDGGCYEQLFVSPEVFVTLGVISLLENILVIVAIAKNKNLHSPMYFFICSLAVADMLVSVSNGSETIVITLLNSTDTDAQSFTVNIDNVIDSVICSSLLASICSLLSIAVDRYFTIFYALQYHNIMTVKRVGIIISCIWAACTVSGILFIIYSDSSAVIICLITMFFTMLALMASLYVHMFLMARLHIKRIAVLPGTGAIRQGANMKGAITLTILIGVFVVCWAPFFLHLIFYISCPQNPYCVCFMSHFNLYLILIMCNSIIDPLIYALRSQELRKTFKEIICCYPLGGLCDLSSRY
Chain of Photoreceptor-specific nuclear receptor (Q9Y5X4 whole entry, the tested form may be a part): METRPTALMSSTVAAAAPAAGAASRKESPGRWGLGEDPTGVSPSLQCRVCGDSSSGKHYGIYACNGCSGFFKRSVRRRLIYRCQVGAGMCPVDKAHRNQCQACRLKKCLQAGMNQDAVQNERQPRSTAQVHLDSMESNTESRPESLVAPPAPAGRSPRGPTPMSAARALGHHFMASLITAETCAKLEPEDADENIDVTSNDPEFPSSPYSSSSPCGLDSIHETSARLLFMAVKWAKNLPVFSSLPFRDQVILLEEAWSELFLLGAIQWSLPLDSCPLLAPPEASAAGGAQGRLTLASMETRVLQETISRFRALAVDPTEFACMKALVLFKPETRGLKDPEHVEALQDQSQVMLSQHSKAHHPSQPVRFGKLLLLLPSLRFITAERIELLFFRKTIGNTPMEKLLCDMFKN

Structure (SMILES): O=C(OC12CC3CC(CC(C3)C1)C2)c1ccc(NCc2cc(O)ccc2O)cc1
AC50 [3]: 2.33 µM (active) | AC50 [4]: 5.15 µM (active) | AC50 [5]: 53 µM (active) | IC50 [6]: 4.09 µM (active) | AC50 [7]: 3.99 µM (active)

Structure (SMILES): CCCOc1ccc(C(=O)NC(C)C(=O)O)cc1 (stereo not given)
IC50 [8]: > 50 µM (inactive)

Structure (SMILES): NS(=O)(=O)c1ccc(NC(=O)COC(=O)c2ncc(Cl)c(Cl)c2Cl)cc1
IC50 [9]: > 64.6 µM (inactive) | IC50 [10]: > 64.6 µM (inactive)

Structure (SMILES): Cc1cc(Br)ccc1NC(=O)CSc1nnc(CN2CCOCC2)n1C
IC50 [11]: 40.2 µM (inactive) | IC50 [12]: 24.7 µM (inactive) | IC50 [13]: 35.9 µM (inactive)

Structure (SMILES): Cc1ccn2c(=O)nc(SCC(=O)Nc3ccc4c(c3)OCCO4)nc2c1
IC50 [11]: 35.9 µM (inactive) | IC50 [12]: 3.98 µM (active) | IC50 [13]: 35.9 µM (inactive)

Now from value to molecule, other results behind:

IC50 [1]: > 100 µM (not active) | IC50 [2]: > 100 µM (inactive)
Structure (SMILES): Cc1ccc(S(=O)(=O)Nc2nc3ccccc3nc2Cl)cc1

IC50 [15]: 92.8 µM (active)
Structure (SMILES): COc1ccc(N2CCN(CC(O)COC(c3ccc(F)cc3)c3ccc(F)cc3)CC2)cc1 (stereo not given)
CC50 [14]: 100 µM (active)

IC50 [1]: > 100 µM (not active) | IC50 [2]: > 100 µM (inactive)
Structure (SMILES): COc1ccc(S(=O)(=O)Nc2ccncc2)cc1OC
